Earlier results, collected in patent publication US12102628B2, “Composition and methods for the treatment of myopia” (Seinda Pharmaceutical Guangzhou Corporation, priority 2017, dated 2024).
Read-outs that look alike come from different tables or passages of the source.

Tests used:
[1] = ophthalmic use, concentrations per Table 2
myopic children = conditions: for Myopia progression: myopic children
[2] = not given; remark: listed apart in the source
M3 receptor = M3 receptor (Homo sapiens, UniProt P20309); conditions: M3 receptor-selective antagonists
M3 receptor, sequence (P20309 whole entry): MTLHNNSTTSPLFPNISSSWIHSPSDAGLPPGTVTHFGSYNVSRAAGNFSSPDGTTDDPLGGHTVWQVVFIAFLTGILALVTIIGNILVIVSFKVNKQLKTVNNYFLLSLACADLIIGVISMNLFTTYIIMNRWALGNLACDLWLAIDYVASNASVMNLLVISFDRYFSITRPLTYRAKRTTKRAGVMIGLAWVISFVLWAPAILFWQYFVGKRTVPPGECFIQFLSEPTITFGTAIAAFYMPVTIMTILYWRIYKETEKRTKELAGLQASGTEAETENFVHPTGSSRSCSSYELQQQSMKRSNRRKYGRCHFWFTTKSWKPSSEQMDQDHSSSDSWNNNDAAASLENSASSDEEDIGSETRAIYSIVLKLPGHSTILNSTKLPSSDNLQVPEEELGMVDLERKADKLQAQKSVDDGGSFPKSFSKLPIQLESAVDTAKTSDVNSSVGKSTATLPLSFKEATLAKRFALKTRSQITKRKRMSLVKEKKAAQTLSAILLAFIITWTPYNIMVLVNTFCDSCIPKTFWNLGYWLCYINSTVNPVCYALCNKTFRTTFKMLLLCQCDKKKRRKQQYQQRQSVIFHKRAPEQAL

Row | Compound | Acting Duration [1] | Aqueous Solubility | logP [2] | also measured
1 | CN1[C@@H]2CC[C@H]1C[C@@H](OC(=O)C(CO)c1ccccc1)C2 (stereo partly drawn) [Atropine, atropine] | 7 to 14 days |  |  | Pupil dilation diameter (pupil; 0.05% atropine solution, control group 2.93 mm): 5.52 mm; Photophobia ratio (pupil; low concentration atropine group): about 66.67%; Effect on myopia progression (in words) (myopic children; 0.5% atropine solution): effectively slow the myopia progression; Myopia progression (myopic children; atropine concentration 0.1%): 0.47 diopter/yr; Myopia progression (myopic children; atropine concentration 0.25%): 0.45 diopter/yr; Myopia progression (myopic children; atropine concentration 0.5%): 0.04 diopter/yr
2 | c1ccc(C(O[C@@H]2CCCN(CCc3ccc4c(c3)OCO4)C2)c2ccccc2)cc1 [Zamifenacin] |  | 20 µg/mL | 4.4 | Affinity (pKi) (M3 receptor): 9.3
3 | CN(C)CCOC(=O)C(c1ccccc1)C1(O)CCCC1 (stereo not drawn) [Cyclopentolate] | 4 days |  |  | 
4 | Tiotropium |  | 25000 µg/mL |  | 
5 | NC(=O)C(c1ccccc1)(c1ccccc1)[C@@H]1CCN(CCc2ccc3c(c2)CCO3)C1 [Darifenacin] |  | 6030 µg/mL | 4.5 | 
6 | CN1CCN(CC(=O)N2c3ccccc3C(=O)Nc3cccnc32)CC1 [Pirenzepine] | <1 days |  |  | 
